Assay results published in patent US20060073159A1, “Human anti-cancer immunotherapy” (The Trustees of the University of Pennsylvania, priority 2004, published 2006).

B1: Hox-TLD (peptide)
peptide: TLDTHTLSL
B2: Mei-AIY (peptide)
peptide: AIYGHPLFPL

Legend:
[1] = tested on: T2 cells loaded with cognate peptide; assay: lysis of peptide-loaded T2 cells by peptide-specific CTL; type: cell-based, human; settings: not negative control viral peptide
Experimental: The following assay is adapted from Fischer et al. (2002, J. Immunol. Methods 259:159-169). Briefly, T2 cells are labeled as follows. T2 cells are plated at 1×10^6/mL in serum-free RPMI-1640×1 mL in 24 well plate. 2.5 ug/mL B2M is added to the cells. 1 ug/mL peptide (Tax or Flu) is added to the mixture. The cells are incubate overnight at 37° C. in a CO2 incubator. The cells are then washed once in RPMI-1640 (serum free). The supernatant is removed; leaving about 25 ul supernatant on the pellet. The remaining cells in suspension are agitated to mix with the supernatant. 1 mL of diluent C is added to resuspend the cells.
Immediately prior to staining, 4×10)(−6)M PKH26 dye is prepared at RT (1:250 dilution of stock; 4 ul of 996 ul diluent C). 1 mL of PKH26 dye is immediately added to 1 mL of cells. The sample is immediatedly mixed by gentle pipetting. The sample is incubate at RT for about 2-5 minutes, with periodical swirling of the tube to insure mixing. The staining reaction is stopped by adding 2 mL of serum in a compatible protein solution. This solution is incubated for 1 minute to stop the staining reaction. The sample is then diluted with 4 mL of complete media (T cell media). The cells are washed two to three times with T cell media.
To assay for the T2 cells, targets at 2e5/mL in IMDM 10% huSerum is prepared. Effectors are prepared at 2×10^6/mL and 2×10^5/mL in IMDM 10% huSerum. […]

HLA-A2 = target: T1, HLA-A2 (Homo sapiens, UniProt P04439, D140Y/D185E/D98H/E176V/E277Q/G131W/G231S/I119V/I121R/I166T/I218V/L300P/L318F/N151K/N90K/P208A/P217A/Q86G/Q94H/R138H/R169H/T345S); assay: flow-based T2 binding assay (HLA-A2 binding and MHC complex stability); settings: 6 epitopes from each gene product compared, T2 cells
T1 construct: T2 cells are prepared to a concentration of 1×10^6 cells/mL; endogenous in cells; host or cells: T2 cells
Experimental: T2 cells are harvested as described elsewhere herin. T2 cells are wash three times in serum free media. T2 cells are prepared to a concentration of 1×10^6 cells/mL. 1 mL of T2 cells is added to each well of 24 well plate. B2M (1 mg/mL) is added to the mixture to give a final concentration of 2.5 ug/mL. Appropriate control or peptide at 50 ug/mL is added to each wll. The cells are incubated in an incubator at 37° C. For a positive control peptide, RT-POL vs flu or tax can be used.
Next day, cells are harvested and washed three times in serum-free RPMI. The supernatant is removed and the cells are resuspend in 800 ul of serum free IMDM. The cells are plated (400 ul of cells) to one well of a 48 well plate. […]
The fluorescence index (FI) can be calculated from the mean fluorescence intensity as follows: FI=(MFIpeptide/MFIno peptide)−1 The complex's half-life can be calculated using SigmaPlot regression analysis and the following formula: y=yo+a*e^bx t1/2=1/b*ln((y−yo)/a) with yo=Fimax/2 Conjugation of Monomers to Generate Tetramers
HLA-A2-restricted epitopes derived from HoxA9 and Meis I were predicted using two computational algorithms, and 6 epitopes from each gene product with the highest predicted likelihood of binding to HLA-A2 were evaluated empirically using a flow-based T2 assay, as described (Vonderheide et al., 1999, Immunity 10:673-679). […]

[2] = tested on: HoxA9+ and Meis1+ leukemia cell lines; assay: lysis of leukemia cell lines by peptide-specific CTL; type: cell-based, human; settings: antigen-dependent, MHC-restricted; HLA-A2-negative or antigen-negative leukemia cells not killed
Excerpt: To determine whether these peptides could trigger the expansion of specific CTL, CD8+ T cells from normal HLA-A2+ donors were stimulated in vitro with autologous peptide-loaded antigen presenting cells, using a system previously described (Vonderheide et al., 1999, Immunity 10:673-679). […] Moreover, both Hox-TLD and Mei-AIY specific CTL were able to lyse HoxA9+ and Meis1+leukemia cell lines in an antigen-dependent, MHC-restricted fashion.

human HLA-A*0201 = target: T2, human HLA-A*0201 (human); assay: flow-based T2 assay (HLA-A2 stabilisation on peptide-pulsed T2 cells, anti-HLA-A2-FITC)
T2 construct: HLA-A2 on TAP-deficient T2 cells; Surface stabilisation by peptide was read with anti-HLA-A2-FITC by flow cytometry; also called HLA-A2; A2
Experimental: Next day, cells are harvested and washed three times in serum-free RPMI. The supernatant is removed and the cells are resuspend in 800 ul of serum free IMDM. The cells are plated (400 ul of cells) to one well of a 48 well plate. The cells are incubate for an additional 6 hours in an incubator at 37° C. The remaining cells are saved and place on ice for immediate analysis. The cells are stained for anti-HLA-A2-FITC and for IgG-FITC. The cells are anaylized on a flow cytometer.
HLA-A2-restricted epitopes derived from HoxA9 and Meis I were predicted using two computational algorithms, and 6 epitopes from each gene product with the highest predicted likelihood of binding to HLA-A2 were evaluated empirically using a flow-based T2 assay, as described (Vonderheide et al., 1999, Immunity 10:673-679). […] The same cells in normal HLA-A2+ donors were undetectable.

Molecule | lysis of T2 cells loaded with cognate peptide by specific CTL [1] | binding and MHC complex stability (HLA-A2) | lysis of HoxA9+ and Meis1+ leukemia cell lines by specific CTL [2] | binding result (human HLA-A*0201)
Hox-TLD: epitope of the antigen HOX-A9, SEQ ID NO:3 (TLDTHTLSL; human-derived peptide) | able to lyse T2 cells loaded with cognate peptide | best binding and MHC complex stability | able to lyse | –
Mei-AIY: epitope of the antigen Meis1, SEQ ID NO:11 (AIYGHPLFPL; human-derived peptide) | able to lyse T2 cells loaded with cognate peptide | best binding and MHC complex stability | able to lyse | –
B1 | – | – | – | binds
B2 | – | – | – | binds
